Values quoted from earlier work, collected in patent US9468626B2, “Melatonin-based formulations for parenteral administration” (CHIESI FARMACEUTICI S.p.A., priority 2014, dated 2016).

What was measured:
[1] = in vivo
[2] = exposed to light or oxygen
[3] = test system: newborn piglets; details: intravenously, 5 mg/kg/h

oral bioavailability [1]: low and very variable
solubility in water: poorly soluble in water
Structure (SMILES): COc1ccc2[nH]cc(CCNC(C)=O)c2c1 [melatonin, N-[2-(5-Methoxy-1H-indol-3-yl)ethyl]acetamide]
stability in aqueous solution [2]: not stable when exposed to light or oxygen
hypothermic neuroprotection [3]: increases hypothermic neuroprotection
